From patent US11407819B2, “Compositions and use of a fibrinogen binding motif present in EFB and COA for therapeutics and vaccines against Staphylococcus aureus” (priority 2013, dated 2022)
Entries after “also recorded” stand apart in the source; their conditions may differ.

What was measured:
rEfb-N binding to Fg = target: T1, rEfb-N binding to Fg (Homo sapiens, UniProt P02671+P02675+P02679); assay: Competition ELISA, peptide inhibition of rEfb-N (Efb 30-104) binding to Fg; settings: increasing concentration of peptides; 2 nM GST fusion protein
T1 construct: full-length human Fibrinogen (diluted in PBS, Enzyme research); purchased Enzyme research; host or cells: Efb probe made in E. coli
T1 sequence (P02671 20-629 limits assumed): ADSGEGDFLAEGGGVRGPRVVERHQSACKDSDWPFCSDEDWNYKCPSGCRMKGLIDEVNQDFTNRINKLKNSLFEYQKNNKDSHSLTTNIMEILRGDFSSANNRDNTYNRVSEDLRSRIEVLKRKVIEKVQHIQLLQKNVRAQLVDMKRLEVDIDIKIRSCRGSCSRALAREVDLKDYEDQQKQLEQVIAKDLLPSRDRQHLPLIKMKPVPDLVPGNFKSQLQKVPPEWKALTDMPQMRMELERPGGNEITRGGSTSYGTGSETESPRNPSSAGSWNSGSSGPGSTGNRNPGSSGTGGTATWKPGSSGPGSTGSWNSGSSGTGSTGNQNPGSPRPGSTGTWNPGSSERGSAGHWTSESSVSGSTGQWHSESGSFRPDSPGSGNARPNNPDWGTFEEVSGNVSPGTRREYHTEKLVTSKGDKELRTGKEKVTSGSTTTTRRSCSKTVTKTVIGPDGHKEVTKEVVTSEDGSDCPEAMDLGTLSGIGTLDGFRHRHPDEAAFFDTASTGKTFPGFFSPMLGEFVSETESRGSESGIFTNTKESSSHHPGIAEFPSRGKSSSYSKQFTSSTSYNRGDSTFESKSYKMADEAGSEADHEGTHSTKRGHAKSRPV
T1 sequence (P02675 31-491): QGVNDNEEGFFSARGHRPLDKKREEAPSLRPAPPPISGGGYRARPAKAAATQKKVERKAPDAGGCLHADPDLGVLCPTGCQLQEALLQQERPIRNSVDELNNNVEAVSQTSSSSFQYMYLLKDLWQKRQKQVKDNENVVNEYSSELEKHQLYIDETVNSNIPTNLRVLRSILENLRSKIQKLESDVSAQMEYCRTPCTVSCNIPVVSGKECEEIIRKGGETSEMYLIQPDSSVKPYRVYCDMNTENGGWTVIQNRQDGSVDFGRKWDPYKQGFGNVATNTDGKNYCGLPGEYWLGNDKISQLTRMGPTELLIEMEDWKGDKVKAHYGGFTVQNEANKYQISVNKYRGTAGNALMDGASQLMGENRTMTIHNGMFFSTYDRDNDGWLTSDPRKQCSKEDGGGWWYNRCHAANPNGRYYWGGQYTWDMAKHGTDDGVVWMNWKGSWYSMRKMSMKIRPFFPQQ
T1 sequence (P02679 27-453): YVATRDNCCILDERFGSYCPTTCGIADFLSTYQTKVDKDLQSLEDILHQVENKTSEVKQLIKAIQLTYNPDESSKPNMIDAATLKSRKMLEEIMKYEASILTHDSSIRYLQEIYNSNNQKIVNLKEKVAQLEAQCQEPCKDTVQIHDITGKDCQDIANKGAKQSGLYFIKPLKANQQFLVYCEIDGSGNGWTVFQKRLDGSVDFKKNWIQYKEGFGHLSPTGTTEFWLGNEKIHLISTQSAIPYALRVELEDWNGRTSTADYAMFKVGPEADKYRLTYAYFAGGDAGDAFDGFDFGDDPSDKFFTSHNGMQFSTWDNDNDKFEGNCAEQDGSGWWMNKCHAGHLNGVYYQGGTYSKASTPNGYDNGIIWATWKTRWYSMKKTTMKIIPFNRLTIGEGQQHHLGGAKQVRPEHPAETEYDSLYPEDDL
Excerpt: Coa-F contains an Efb like fibrinogen binding motif. FIG. 11A is an image of a ClustalW alignment of amino acid sequence from Efb-O (Efb 68-98) and Coa from Newman strain (col-Newman). Sequence similarity was identified at Coa 474-505. Bold letters denote conserved residues and underlined letters represent similar residues. FIGS. 11B and 11C show a comparison of amino acid sequence of Efb-O with Coa 474-505 (FIG. 11B) and Coa 506-532 (FIG. 11C). Large letters in Efb-O indicate the residues important for Fg binding. The red letters show the identical residues and the yellow letters indicate the similar residues. […] Increasing concentration of Coa peptides was incubated with 2 nM GST fusion proteins in Fg-coated microtiter wells. Closed square, sCoa-O; closed circle, sCoa-RI; closed triangle, sEfb-O.
A peptide was synthesized that corresponds to the Coa-O sequence (sCoa-O) and determined its Fg binding activity in a competition ELISA. Microtiter wells were coated with Fg and binding of the recombinant N-terminal segment of Efb (rEfb-N), that harbors the two Fg binding sites, was quantitated in the presence of increasing concentration of different synthetic peptides.
In the case of peptide inhibition assay, various concentration of Efb or Coa peptides were mixed with a fixed concentration of Coa-GST or Efb-GST fusion proteins (5-10 nM) in TBS and the bound GST fusion proteins were detected through incubation with HRP-conjugated rabbit anti-GST polyclonal antibodies (5000× dilution). All proteins were diluted in TBS containing 1% BSA and 0.05% TWEEN® 20 and the ELISA assays were carried out at room temperature.

THP-1 cells = assay: THP-1 cell adherence to immobilized Fg; format: cell-based; settings: for inhibition of THP-1 adherence to immobilized Fg: M1/70 20 μg/ml, rEfb 0.2 μM, rCoa 0.5 μM, peptides 0.5 μM each
Description: Cell adherence assay using cell lines—A monocytic cell line THP-1 cell stably expressing αMβ2 was maintained in RPMI1640 supplemented with 10% fetal bovine serum, […] L-glutamine, 100 units/ml penicillin and 100 μg/ml streptomycin. Prior to use, cells were harvested by centrifuge, washed and suspended in RPMI 1640/1% human serum albumin. For cell adherence assays, 48-well plates were coated with 200 μl of Fibrinogen (10 μg/ml) overnight at 4° C. followed by 1 hour at 37° C. before blocking with 1% Polyvinylpyrrolidone (PVP 3600 kDa) for 45 minutes at 37° C. Subsequently, the cells were seeded 2×10^5/well in the presence or absence of Coa or Efb recombinant proteins or peptides and incubated at 37° C. for 25 minutes. Non-adherent cells were removed by washing gently three times with PBS/1% BSA. Adherent cells were quantitated with CyQuant kit according to the manufacturer's manual.

With “sCoa-RI: synthetic peptide, first 27 residues of repeat region, Coa 506-532 (ETNAYNVTTHANGQVSYGARPTYKKPS)” the “inhibition of rEfb-N binding to Fg” value (rEfb-N binding to Fg) was “effectively inhibited rEfb-N binding to Fg; also recorded: somewhat more effective inhibitor than sCoa-O” and the “inhibition of THP-1 adherence to immobilized Fg” value (THP-1 cells) was “did not inhibit THP-1 adherence”.

“sEfb-O: synthetic peptide mimicking the high affinity Fg-binding motif in Efb (Efb 68-98) (KYIKFKHDYNILEFNDGTFEYGARPQFN)” was tested, and the “inhibition of rEfb-N binding to Fg” value (rEfb-N binding to Fg) was “potently inhibited rEfb-N binding to the Fg surface; also recorded: effectively inhibited rEfb-N binding to Fg”, the “inhibition of THP-1 adherence to immobilized Fg” value (THP-1 cells) was “did not inhibit THP-1 adherence” and the “reversal of inhibition of THP-1 adherence elicited by rEfb or rCoa” value (THP-1 cells; peptide 50 μM preincubated with rEfb (0.2 μM) or rCoa (0.2 μM)) was “reverses the inhibitory activities”.
